The text below walks through data of patent publication US8455439B2, “Antidotes for factor Xa inhibitors and methods of using the same in combination with blood coagulating agents” (Portola Pharmaceuticals, Inc., priority 2008, dated 2013).

Data set [1] relates to pooled human plasma. Put plainly: Prothrombin time (PT) clotting assay, MLA Electra 800 automatic coagulation timer. The following applies: 1 μM rivaroxaban alone (baseline 12.2 sec). Type of data set: biochemical.
The conditions of data set [2]: cited from earlier work.
For data set [3], the system named is human platelet poor plasma. Put plainly: Clotting prolongation assay, 96-well plate format (OD405 turbidity change, aPTT reagent). As to conditions: 125 nM betrixaban, no r-Antidote, no FX; FIG. 26. Type of data set: biochemical.
The test system of data set [4] is thrombin generation in human plasma. The experiment in a line: Thrombin generation assay in platelet poor or platelet rich plasma. Format: biochemical. The following applies: 250 nM betrixaban, at all rfVIIa concentrations tested (50-200 nM) with tissue factor; FIG. 4.
Procedure: PRP and PPP were prepared by spinning the anticoagulated blood at ˜100× gravity or 1000× gravity for 20 minutes, respectively, at room temperature. 75-100 microliter (uL) plasma was mixed with CaCl2 and Z-Gly-Gly-Arg-aminomethylcoumarin (Z-GGR-AMC, a thrombin fluorogenic substrate). Tissue factor (Innovin, Dade Behring) was added to initiate the generation of thrombin. For a typical experiment, the reaction mixture contained 15 millimolar (mM) Ca^2+, 100 micromolar (μM) Z-GGR-AMC, and 0.1 nanomolar (nM) tissue factor (TF) (Innovin). Thrombin formation was monitored continuously at 37° C. by a fluorometric plate reader (Molecular Devices) measuring the relative fluorescence units (RFU). Inhibitor and antidote, when present, were pre-incubated with plasma for 20 minutes at room temperature before initiation of thrombin generation.
PRP and PPP were prepared by spinning the anticoagulated blood at ˜100× gravity or 1000× gravity for 20 minutes, respectively, at room temperature. […] Tissue factor (Innovin, Dade Behring) and CaCl2 were added to initiate the generation of thrombin. […] Thrombin formation was monitored continuously at 37° C. by a fluorometric plate reader (Molecular Devices) measuring the relative fluorescence units (RFU). […]
For data set [5], the system named is pooled human plasma. Put plainly: aPTT clotting assay, MLA Electra 800 automatic coagulation timer. Type of data set: biochemical.
Procedure: Two clotting assay formats were used to test the effects of factor Xa inhibitors and the antidote on clotting prolongation. […] In the second assay format, aPTT was measured with a conventional coagulation instrument (MLA Electra 800 automatic coagulation timer).
The effect of 1 antiXa Unit/mL LMWH on aPTT prolongation of plasma and the reversal of inhibitory effect was measured by a MLA Electra 800 Automatic coagulation timer. 100 μL pooled citrate anticoagulated human plasma was mixed with enoxaparin and different concentrations of antidote. Prior to measurement of clotting time, aPTT reagent (Actin FS, Dade Behring) and CaCl2 were added per manufacturer's instructions.

Several values for one entry are separate records, joined by “and”; a condition that tells them apart may be missing. Equal entries are not always repeated.

In turn, `O=C(NC[C@H]1CN(c2ccc(N3CCOCC3=O)cc2)C(=O)O1)c1ccc(Cl)s1` [rivaroxaban] registered a PT in the data set on pooled human plasma [1] of 25 ± 0.4 s. Besides, the peak plasma concentrations in data set [2] (clinically effective doses) was ≤ 318 ng/ml and ≤ 730 nM. Further, the therapeutic concentrations entry in data set [2] (reported, Kubitza 2005) is recorded as “approximately 600 nM”.
Consider “[2-({4-[(dimethylamino)iminomethyl]phenyl}carbonylamino)-5-methoxyphenyl]-N-(5-chloro(2-pyridyl))carboxamide [betrixaban]”, for which the “effect on clotting time” value in data set [3] is given as “doubled the clotting time”. For the same molecule, the “inhibition of fXa by betrixaban (thrombin generation)” value in data set [4] is recorded as “about 75%”. The “aPTT” value was 61.8 s in the data set on pooled human plasma [5] (300 nM Betrixaban alone); 66.3 s with pooled human plasma [5] (400 nM Betrixaban alone (Table 17)); 51.6 ± 0.4 s in the data set with pooled human plasma [5] (400 nM betrixaban alone (Example 17, baseline 25.5 sec)). The “extension of aPTT” value with pooled human plasma [5] (400 nM betrixaban, FIG. 13) was “more than two folds”.
For “fIX: human plasma derived blood coagulation factor IX (Haematologic Technologies)”, the aPTT with pooled human plasma [5] (258 nM fIX, 400 nM betrixaban) amounted to 43.8 s. Further, the “correction of aPTT” value with pooled human plasma [5] (258 nM fIX, 400 nM betrixaban) came out at 15%; with pooled human plasma [5] (387 nM fIX, 400 nM betrixaban), 15%. In addition, in the data set with pooled human plasma [5] (fIX, absence of betrixaban, FIG. 25), the “effect on aPTT in human plasma” value was “slightly reduced aPTT”.
